Measurements published in the supplement of paper PMC10307832.

What was measured:
Experiment in all cases: relative viability (nuclei count vs DMSO), 5 days (fraction); higher = more cells survive
[1] = compound: O=C(Nc1cccc(C(F)(F)F)c1)Nc1cc(S(=O)(=O)NC2CC2)ccc1-c1ccsc1 [AGI-6780] + Cc1cc(Nc2cc(N3CCN(C)CC3)nc(Sc3ccc(NC(=O)C4CC4)cc3)n2)n[nH]1 [Tozasertib] (partner 0.1 µM)
Method in brief: (§1)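 Nuclei were stained with Hoechst during a one-step fixation (final 0.05% Triton X-100, 1% formaldehyde, 1 ug/ml Hoechst) carried out 5 days after dosing, then counted on 4× images. The cells, lung cancer lines in 1536-well plates, had been dosed by pin tool the day after seeding with one drug alone or a fixed anchor-drug dose plus five library-drug doses (not always all listed) in √10 steps. Relative viability is the nuclei count in treated wells divided by that in vehicle wells, and each value is the median of duplicate plates.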

[2] = compound: O=C(Nc1cccc(C(F)(F)F)c1)Nc1cc(S(=O)(=O)NC2CC2)ccc1-c1ccsc1 [AGI-6780] + Cc1nc(Nc2ncc(C(=O)Nc3c(C)cccc3Cl)s2)cc(N2CCN(CCO)CC2)n1 [Dasatinib] (partner 0.075 µM)
Method in brief: as §1

[3] = compound: O=C(Nc1cccc(C(F)(F)F)c1)Nc1cc(S(=O)(=O)NC2CC2)ccc1-c1ccsc1 [AGI-6780] + CCNC(=O)c1noc(-c2cc(C(C)C)c(O)cc2O)c1-c1ccc(CN2CCOCC2)cc1 [Luminespib] (partner 0.01 µM)
Method in brief: as §1

[4] = compound: O=C(Nc1cccc(C(F)(F)F)c1)Nc1cc(S(=O)(=O)NC2CC2)ccc1-c1ccsc1 [AGI-6780] + N=C(N)NC(=N)NCCc1ccccc1 [Phenformin] (partner 250 µM)
Method in brief: as §1

[5] = compound: O=C(Nc1cccc(C(F)(F)F)c1)Nc1cc(S(=O)(=O)NC2CC2)ccc1-c1ccsc1 [AGI-6780] + COc1cccc2cc(-c3nc([C@H]4CC[C@H](C(=O)O)CC4)n4ncnc(N)c34)[nH]c12 [OSI-027] (partner 0.5 µM)
Method in brief: as §1

[6] = compound: O=C(Nc1cccc(C(F)(F)F)c1)Nc1cc(S(=O)(=O)NC2CC2)ccc1-c1ccsc1 [AGI-6780] + COc1cc2c(Oc3ccc(NC(=O)C4(C(=O)Nc5ccc(F)cc5)CC4)cc3F)ccnc2cc1OCCCN1CCOCC1 [Foretinib] (partner 0.25 µM)
Method in brief: as §1

[7] = compound: O=C(Nc1cccc(C(F)(F)F)c1)Nc1cc(S(=O)(=O)NC2CC2)ccc1-c1ccsc1 [AGI-6780]
Method in brief: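 On vehicle-anchored 1536-well plates, lung cancer cell lines held overnight at 37 °C were pinned with five library-drug doses (not always all listed) spaced by √10. With no medium change over 5 days, they were then fixed, permeabilised and Hoechst-stained in one step and imaged at 4×. MetaXpress counted nuclei, and viability is the median across plates of treated-well over vehicle-well nuclei. Acceptance needed control CV below 25% and at least one doubling.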

NCI-H1623
relative viability ([1]; first compound 0.08 µM): 0.47
relative viability ([1]; first compound 0.253 µM): 0.519
relative viability ([1]; first compound 0.8 µM): 0.474
relative viability ([1]; first compound 2.53 µM): 0.391
relative viability ([1]; first compound 8 µM): 0.409
relative viability ([2]; first compound 0.08 µM): 0.484
relative viability ([2]; first compound 0.253 µM): 0.553
relative viability ([2]; first compound 0.8 µM): 0.619
relative viability ([2]; first compound 2.53 µM): 0.477
relative viability ([2]; first compound 8 µM): 0.489
relative viability ([3]; first compound 0.08 µM): 0.489
relative viability ([3]; first compound 0.253 µM): 0.483
relative viability ([3]; first compound 0.8 µM): 0.575
relative viability ([3]; first compound 2.53 µM): 0.381
relative viability ([3]; first compound 8 µM): 0.463
relative viability ([4]; first compound 0.08 µM): 0.561
relative viability ([4]; first compound 0.253 µM): 0.604
relative viability ([4]; first compound 0.8 µM): 0.609
relative viability ([4]; first compound 2.53 µM): 0.508
relative viability ([4]; first compound 8 µM): 0.518
relative viability ([5]; first compound 0.08 µM): 0.537
relative viability ([5]; first compound 0.253 µM): 0.453
relative viability ([5]; first compound 0.8 µM): 0.454
relative viability ([5]; first compound 2.53 µM): 0.374
relative viability ([5]; first compound 8 µM): 0.396
relative viability ([6]; first compound 0.08 µM): 0.789
relative viability ([6]; first compound 0.253 µM): 0.856
relative viability ([6]; first compound 0.8 µM): 0.976
relative viability ([6]; first compound 2.53 µM): 0.721
relative viability ([6]; first compound 8 µM): 0.887
relative viability ([7]; 0.08 µM): 0.967
relative viability ([7]; 0.253 µM): 0.953
relative viability ([7]; 0.8 µM): 0.977
relative viability ([7]; 2.53 µM): 0.681
relative viability ([7]; 8 µM): 0.949
